# Measurements from ChEMBL document CHEMBL5338769, “Discovery of Norisoboldine Analogue III11 as a Novel and Potent Aryl Hydrocarbon Receptor Agonist for the Treatment of Ulcerative Colitis” (J Med Chem, 2023).
# Calls of active or inactive are those of the source. The calls are words filed in the database; no cut-off is given here.
# Key:
# [1] = target: T1, Aryl hydrocarbon receptor (Mus musculus, UniProt P30561); experiment: Activation of AhR transcription in C57BL/6 mouse naive T cells assessed as increase in CYP1A1 mRNA expression at 1 to 3 uM measured after 72 hrs by qRT-PCR analysis; type: cell-based; conditions: t cell, dose 1-3 µM
# T1 sequence (P30561 whole entry): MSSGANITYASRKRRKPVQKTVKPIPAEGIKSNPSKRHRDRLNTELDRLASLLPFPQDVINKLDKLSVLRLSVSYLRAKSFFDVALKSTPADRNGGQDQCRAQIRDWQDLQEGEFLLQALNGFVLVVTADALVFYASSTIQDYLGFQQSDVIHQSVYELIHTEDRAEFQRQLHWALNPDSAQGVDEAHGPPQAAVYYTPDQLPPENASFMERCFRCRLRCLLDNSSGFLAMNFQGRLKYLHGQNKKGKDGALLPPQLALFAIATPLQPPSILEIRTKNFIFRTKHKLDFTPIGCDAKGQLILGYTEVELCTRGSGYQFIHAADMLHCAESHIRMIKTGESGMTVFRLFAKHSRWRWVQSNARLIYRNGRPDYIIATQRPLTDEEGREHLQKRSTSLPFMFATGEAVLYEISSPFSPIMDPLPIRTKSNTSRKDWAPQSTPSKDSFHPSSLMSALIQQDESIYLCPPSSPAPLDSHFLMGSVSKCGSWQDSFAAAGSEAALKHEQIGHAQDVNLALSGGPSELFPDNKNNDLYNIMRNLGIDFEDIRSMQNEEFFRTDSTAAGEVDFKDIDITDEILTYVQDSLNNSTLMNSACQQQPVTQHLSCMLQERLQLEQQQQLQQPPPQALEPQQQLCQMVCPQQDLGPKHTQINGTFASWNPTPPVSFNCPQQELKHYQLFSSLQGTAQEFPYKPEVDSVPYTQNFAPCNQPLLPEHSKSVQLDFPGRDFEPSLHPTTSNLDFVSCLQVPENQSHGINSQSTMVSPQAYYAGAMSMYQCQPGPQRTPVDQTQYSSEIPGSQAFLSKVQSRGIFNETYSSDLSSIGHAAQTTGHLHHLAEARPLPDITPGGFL
# [2] = tested on: EL4; experiment: Cytotoxicity against mouse EL4 cells assessed as inhibition of cell proliferation incubated for 72 hrs by MTT assay; type: functional, cell-based; conditions: EL4, 72 h
# [3] = target: T1, Aryl hydrocarbon receptor; experiment: Activation of AhR transcription in C57BL/6 mouse naive T cells assessed as increase in CYP1A1 mRNA expression at 1 to 3 uM by qRT-PCR analysis; type: cell-based; conditions: t cell, dose 1-3 µM
# [4] = target: T1, Aryl hydrocarbon receptor; experiment: Activation of AhR transcription in C57BL/6 mouse naive T cells assessed as increase in CYP1B1 mRNA expression at 1 to 3 uM by qRT-PCR analysis; type: cell-based; conditions: t cell, dose 1-3 µM
# [5] = target: T1, Aryl hydrocarbon receptor; experiment: Activation of AhR transcription in C57BL/6 mouse naive T cells assessed as increase in UGT1A1 mRNA expression at 1 to 3 uM by qRT-PCR analysis; type: cell-based; conditions: t cell, dose 1-3 µM
# [6] = target: T1, Aryl hydrocarbon receptor; experiment: Activation of AhR transcription in C57BL/6 mouse naive T cells assessed as increase in AhRR mRNA expression at 1 to 3 uM by qRT-PCR analysis; type: cell-based; conditions: t cell, dose 1-3 µM
# [7] = target: T1, Aryl hydrocarbon receptor; experiment: Activation of AhR transcription in C57BL/6 mouse naive T cells assessed as increase in CYP1A1 mRNA expression at 3 uM measured after 72 hrs by qRT-PCR analysis relative to control; type: cell-based; conditions: t cell
# [8] = target: T1, Aryl hydrocarbon receptor; experiment: Activation of AhR transcription in C57BL/6 mouse naive T cells assessed as increase in CYP1A1 mRNA expression at 1 uM by qRT-PCR analysis; type: cell-based; conditions: t cell
# [9] = target: T1, Aryl hydrocarbon receptor; experiment: Activation of AhR transcription in C57BL/6 mouse naive T cells assessed as increase in CYP1A1 mRNA expression at 10 uM measured after 72 hrs by qRT-PCR analysis relative to control; type: cell-based; conditions: t cell
# [10] = target: T1, Aryl hydrocarbon receptor; experiment: Activation of AhR transcription in C57BL/6 mouse naive T cells assessed as increase in CYP1A1 mRNA expression by measuring fold change at 10 uM measured after 72 hrs by qRT-PCR analysis relative to control; type: cell-based; conditions: T-cell, read-out: FC
# [11] = Unbound drug concentration in rat plasma at 10.67 ug/ml of total concentration measured after 12 hrs by ultrafiltration based HPLC analysis; type: ADME, cell-free; conditions: dose 10.67 µg/ml
# [12] = Unbound drug concentration in rat plasma at 20.13 ug/ml of total concentration measured after 12 hrs by ultrafiltration based HPLC analysis; type: ADME, cell-free; conditions: dose 20.13 µg/ml
# [13] = Unbound drug concentration in rat plasma at 37.38 ug/ml of total concentration measured after 12 hrs by ultrafiltration based HPLC analysis; type: ADME, cell-free; conditions: dose 37.38 µg/ml
# [14] = Protein binding in rat plasma at 10.67 ug/ml of total concentration measured after 12 hrs by ultrafiltration based HPLC analysis; type: ADME, cell-free; conditions: at 10.67 µg/mL, read-out: PPB (converted)
# [15] = tested on: Regulatory T cell; experiment: Induction of cell differentiation in C57BL/6 mouse naive regulatory T cells at 10 uM incubated for 72 hrs by flow cytometric analysis; type: functional, cell-based
# [16] = Induction of cell differentiation in C57BL/6 mouse naive regulatory T cells assessed as increase in cell frequency at 3 uM incubated for 72 hrs by flow cytometric analysis (reference value: 24.9%); type: functional
# [17] = tested on: Regulatory T cell; experiment: Induction of cell differentiation in C57BL/6 mouse naive regulatory T cells assessed as increase in […] mRNA level at 3 uM incubated for 72 hrs by qRT-PCR analysis; type: functional, cell-based
# [18] = tested on: Regulatory T cell; experiment: Induction of cell differentiation in C57BL/6 mouse naive regulatory T cells assessed as increase in IL-10 mRNA level at 3 uM incubated for 72 hrs by qRT-PCR analysis; type: functional, cell-based
# [19] = Half-life in Sprague-Dawley rat at 3 mg/kg, iv measured upto 1440 min by LC-MS/MS analysis; type: ADME, organism-based; conditions: in vivo
# [20] = Cmax in Sprague-Dawley rat at 3 mg/kg, iv measured at 120 min by LC-MS/MS analysis; type: ADME, organism-based; parameters: time 120 min, dose 3 mg/kg, route iv; conditions: in vivo
# [21] = AUC(0 to infinity) in Sprague-Dawley rat at 3 mg/kg, iv measured upto 1440 min by LC-MS/MS analysis; type: ADME, organism-based; parameters: dose 3 mg/kg, time < 1440 min, route iv; conditions: in vivo
# [22] = MRT in Sprague-Dawley rat at 3 mg/kg, iv measured upto 1440 min by LC-MS/MS analysis; type: ADME, organism-based; conditions: in vivo
# [23] = Apparent oral clearance in Sprague-Dawley rat at 3 mg/kg, iv measured upto 1440 min by LC-MS/MS analysis; type: ADME, organism-based; conditions: in vivo, 24 h
# [24] = Half-life in Sprague-Dawley rat at 30 mg/kg, po measured upto 1440 min by LC-MS/MS analysis; type: ADME, organism-based; conditions: in vivo
# [25] = Tmax in Sprague-Dawley rat at 30 mg/kg, po measured upto 1440 min by LC-MS/MS analysis; type: ADME, organism-based; conditions: in vivo
# [26] = Cmax in Sprague-Dawley rat at 30 mg/kg, po measured at 120 min by LC-MS/MS analysis; type: ADME, organism-based; parameters: dose 30 mg/kg, time 120 min, route po; conditions: in vivo
# [27] = AUC(0 to infinity) in Sprague-Dawley rat at 30 mg/kg, po measured upto 1440 min by LC-MS/MS analysis; type: ADME, organism-based; parameters: time < 1440 min, dose 30 mg/kg, route po; conditions: in vivo
# [28] = MRT in Sprague-Dawley rat at 30 mg/kg, po measured upto 1440 min by LC-MS/MS analysis; type: ADME, organism-based; conditions: in vivo
# [29] = Apparent oral clearance in Sprague-Dawley rat at 30 mg/kg measured upto 1440 min by LC-MS/MS analysis; type: ADME, organism-based; conditions: in vivo, 24 h
# [30] = Oral bioavailability in Sprague-Dawley rat at 30 mg/kg measured upto 1440 min by LC-MS/MS analysis; type: ADME, organism-based; conditions: in vivo
# [31] = tested on: Mus musculus; experiment: In vivo activation of AhR in C57BL/6 mouse assessed as increase in CYP1A1 mRNA expression at 10 to 20 mg/kg, po administered once a day for 10 days by qRT-PCR analysis; type: functional, organism-based; conditions: dose 10-20 mg/kg, time 10.0 day
# [32] = Induction of cell differentiation in C57BL/6 mouse naive regulatory T cells assessed as increase in cell frequency at 1 uM incubated for 72 hrs by flow cytometric analysis (reference value: 24.9%); type: functional
# [33] = Induction of cell differentiation in C57BL/6 mouse naive regulatory T cells assessed as increase in cell frequency at 10 uM incubated for 72 hrs by flow cytometric analysis (reference value: 24.9%); type: functional
# [34] = Induction of cell differentiation in C57BL/6 mouse naive regulatory T cells assessed as increase in cell frequency at 30 uM incubated for 72 hrs by flow cytometric analysis (reference value: 24.9%); type: functional
# [35] = tested on: Mus musculus; experiment: Anti-colitis activity in DSS-induced ulcerative colitis C57BL/6 mouse model assessed as increase in CD4+CD25+Foxp3+ Treg cell ratio in mesenteric lymph nodes at 10 mg/kg, po administered once a day for 10 days by flow cytometric analysis (reference value: 4.5 %); type: functional; conditions: time 10 day
# [36] = tested on: Mus musculus; experiment: Anti-colitis activity in DSS-induced ulcerative colitis C57BL/6 mouse model assessed as increase in CD4+CD25+Foxp3+ Treg cell ratio in mesenteric lymph nodes at 20 mg/kg, po administered once a day for 10 days by flow cytometric analysis (reference value: 4.5 %); type: functional; conditions: time 10 day
# [37] = tested on: Mus musculus; experiment: Anti-colitis activity in DSS-induced ulcerative colitis C57BL/6 mouse model assessed as CD4+CD25+Foxp3+ Treg cell percentage in spleen at 10 mg/kg, po administered once a day for 10 days by flow cytometric analysis (reference value: 3.3%); type: functional; conditions: time 10 day
# [38] = tested on: Mus musculus; experiment: Anti-colitis activity in DSS-induced ulcerative colitis C57BL/6 mouse model assessed as CD4+CD25+Foxp3+ Treg cell percentage in spleen at 20 mg/kg, po administered once a day for 10 days by flow cytometric analysis (reference value: 3.3%); type: functional; conditions: time 10 day
structure (smiles),measurement,setting,value
COc1cccc(CCNC(=O)OCc2ccccc2)c1,Activity,[1],Not Active
COc1cc2c3c(c1OC)-c1ccccc1CC3N(C)CC2 (stereo not drawn) [(+/-)-NUCIFERINE],IC50,[2],35.9 µM
same,Activity,[3],Not Active
same,Activity,[4],Not Active
same,Activity,[5],Not Active
same,Activity,[6],Not Active
COc1cc2c(cc1O)CC1c3c(cc(O)c(OC)c3-2)CCN1C (stereo unspecified),IC50,[2],70.1 µM
same,Activity,[7],222%
CO/C=C/c1cc(OCc2ccccc2)ccc1Br,Activity,[1],Not Active
COc1cc2c3c(c1)-c1ccc(OCc4ccccc4)cc1CC3N(C(=O)OCc1ccccc1)CC2 (stereo unspecified),Activity,[1],Not Active
COc1ccc2c(c1)-c1c(OC)c(OC)cc3c1C(C2)NCC3 (stereo unspecified),IC50,[2],20.7 µM
same,Activity,[7],177%
O=Cc1cc(O)ccc1Br,Activity,[1],Not Active
COc1cc2c(cc1O)CC1c3c(cc(OC)c(O)c3-2)CCN1C(=O)OC(C)(C)C (stereo unspecified),IC50,[2],37 µM
same,Activity,[8],Active
COc1cc2c(cc1O)CC1NCCc3cc(OC)c(O)c-2c31 (stereo unspecified),IC50,[2],80 µM
same,Activity,[9],208.3%
same,fold induction at 10 µM,[10],2.1
same,Cp(f),[11],5200 ng/mL
same,Cp(f),[12],10020 ng/mL
same,Cp(f),[13],18360 ng/mL
same,"fraction unbound at 12 h, 10.67 ug/ml",[14],0.488
same,Activity,[15],Active
same,Activity,[16],26.6%
same,Activity,[17],inactive
same,Activity,[18],inactive
same,half-life,[19],14.1 min
same,Cmax,[20],245 ng/mL
same,AUC(0-inf),[21],112 ng·h/mL
same,MRT,[22],20.6 min
same,CL/F,[23],0 mg/(ng/ml)/min
same,half-life,[24],23.3 min
same,Tmax,[25],16 min
same,Cmax,[26],34.1 ng/mL
same,AUC(0-inf),[27],27.8 ng·h/mL
same,MRT,[28],42.2 min
same,CL/F,[29],0.02 mg/(ng/ml)/min
same,bioavailability,[30],2.49%
same,Activity,[31],Active
same,Activity,[32],25.4%
same,Activity,[33],32%
same,Activity,[34],37.8%
same,Activity,[35],5.6%
same,Activity,[36],6%
same,Activity,[37],3%
same,Activity,[38],3.6%
COc1cc2c3c(c1OC)-c1cc(O)ccc1CC3NCC2 (stereo unspecified),IC50,[2],25.9 µM
same,Activity,[3],Not Active
same,Activity,[4],Not Active
same,Activity,[5],Not Active
same,Activity,[6],Not Active
